Assay results from US10562944B2, “Herbicide-resistant protein, encoding gene and use thereof” (BEIJING DABEINONG BIOTECHNOLOGY CO., LTD., priority 2015, dated 2020).

How the values were obtained:
[1] = system: Corn plants containing control nucleotide sequence (S9, S10); assay: Herbicide-resistance effect test of corn plants, control sequence (spraying, prop root development); assay type: in vivo; settings: 8960 g ae/ha (16x), 21 days after spraying; for Abnormal development of brace roots / Normal development of brace roots: number of plants
Method: (§1) Herbicide resistance effects tests to 2,4-D dimethyl ammonium salt and agroxone of corn plants containing 24DT21 nucleotide sequence, control nucleotide sequence respectively and wild type corn plants (stages V3-V4) were performed respectively.
(§2) Corn plants containing 24DT21 nucleotide sequence, control nucleotide sequence respectively and wild type corn plants were taken and spayed with 2,4-D dimethyl ammonium salt (8960 g ae/ha, 16-folds concentration in field), agroxone (8960 g ae/ha, 16-folds concentration in field) and blank solvent (water) respectively. Prop root development was counted 21 days after spaying. Three strains (S6, S7 and S8) of corn plants transformed with 24DT21 nucleotide sequence, two strains (S9 and S10) of corn plants transformed with control nucleotide sequence and 1 strain of wild type (CK2) corn were selected and 10-15 plants from each stain were tested.

[2] = system: Soybean plants containing control nucleotide sequence (S4, S5); assay: Herbicide-resistance effect of soybean plants, control sequence (spraying, damage degree); assay type: in vivo; settings: 2240 g ae/ha (4x); for Average damage % 6 HAT: 6 hours after spraying; for Average damage % 2 DAT: 2 days after spraying; for Average damage % 7 DAT: 7 days after spraying; for Average damage % 14 DAT: 14 days after spraying
Method: (§3) Herbicide resistance effects tests to 2,4-D dimethyl ammonium salt and agroxone of soybean plants containing 24DT21 nucleotide sequence and control nucleotide sequence respectively and wild type soybean plants (stages V3-V4) were performed respectively.
(§4) Soybean plants containing 24DT21 nucleotide sequence, control nucleotide sequence and wild type soybean plants were taken and spayed with 2,4-D dimethyl ammonium salt (2240 g ae/ha, four-folds concentration in field), agroxone (2240 g ae/ha, four-folds concentration in field) and blank solvent (water). Take statistics of the damage degree of each plant caused by herbicides according to the curling degree of leaves and the damage degree of growing point six hours ([…]), two days (2DAT), seven days (7DAT) and 14 days (14DAT) after spraying respectively: if leaves are flat like wild-type leaves and the growing point is intact, the damage degree is 0%; if leaves curl up and wilt and the growing point is died, the damage degree is 100%. There are three strains contained a transferred 24DT21 nucleotide sequence (S1, S2 and S3), two strains contained a transferred control sequence (S4 and S5) and one wild-type strain (CK1) in total; select 10˜15 plants from each strain for testing.

[3] = system: Corn plants containing 24DT21 nucleotide sequence (S6, S7, S8); assay: Herbicide-resistance effect test of transgenic corn T1 plants (spraying, prop root development); assay type: in vivo; settings: 8960 g ae/ha (16x), 21 days after spraying; for Abnormal development of brace roots / Normal development of brace roots: number of plants
Method: as §1, §2

[4] = system: Arabidopsis T1 plants transformed with 24DT21 nucleotide sequence; assay: Herbicide resistance effect test of transgenic Arabidopsis T1 plants (spraying); assay type: in vivo, Arabidopsis thaliana; settings: genotype 24DT21, 560 g ae/ha (1x); for Non-resistant: number of plants of 32 dead 14 days after spraying; for Low resistant: number of plants of 32 incapable of bolting 14 days after spraying; for Moderate resistant: number of plants of 32 with curly rosette leaves 7 days after spraying; for High resistant: number of plants of 32 with growth consistent with blank solvent 7 days after spraying
Text: (§5) 24DT21 gene was used to transform Arabidopsis for the first time. At first, T1 transformants were selected from the background of un-transformed seeds, using glufosinate-ammonium selection scheme. About 20000 T1 seeds are screened among which 139 strains of T1 generation positive transformants (PAT gene) were identified, i.e. the transformation efficiency was about 0.7%. Herbicide resistance effect tests to 2,4-D dimethyl ammonium salt and agroxone of Arabidopsis T1 plants transformed with 24DT21 nucleotide sequence, control nucleotide sequence respectively and wild-type Arabidopsis plants were performed after 18 days of planting.
(§6) Arabidopsis T1 plants transformed with 24DT21 nucleotide sequence, control nucleotide sequence respectively and wild-type Arabidopsis plants were sprayed with 2,4-D dimethyl ammonium salt (560 g ae/ha, 1-fold concentration in field), agroxone (560 g ae/ha, 1-fold concentration in field) and blank solvent (water). Resistance conditions of the plants were counted 7 days and 14 days after spraying. Plants with growth conditions consistent with blank solvent (water) 7 days after spaying were classified as highly resistant plants; Plants with curly rosette leaves 7 days after spaying were classified as moderately resistant plants; Plants incapable of bolting 14 days after spaying were classified as low-resistant plants and the dead plants 14 days after spaying were classified as non-resistant plants. Because each Arabidopsis T1 plant is an independent transformation event, significant differences of individual T1 responses can be expected under a given dose.

[5] = system: wild type corn plants (CK2); assay: Herbicide-resistance effect test of wild type corn (spraying, prop root development); assay type: in vivo; settings: wild type corn strain CK2, 8960 g ae/ha (16x), 21 days after spraying; for Abnormal development of brace roots / Normal development of brace roots: number of plants
Method: as §1, §2

[6] = system: Arabidopsis T1 plants transformed with control nucleotide sequence; assay: Herbicide resistance effect test of Arabidopsis T1 plants, control sequence (spraying); assay type: in vivo, Arabidopsis thaliana; settings: genotype Control, 560 g ae/ha (1x); for Non-resistant: number of plants of 32 dead 14 days after spraying; for Low resistant: number of plants of 32 incapable of bolting 14 days after spraying; for Moderate resistant: number of plants of 32 with curly rosette leaves 7 days after spraying; for High resistant: number of plants of 32 with growth consistent with blank solvent 7 days after spraying
Text: as §5, §6

[7] = system: wild-type Arabidopsis plants; assay: Herbicide resistance effect test of wild-type Arabidopsis (spraying); assay type: in vivo, Arabidopsis thaliana; settings: genotype Wild, 560 g ae/ha (1x); for Non-resistant: number of plants of 32 dead 14 days after spraying; for Low resistant: number of plants of 32 incapable of bolting 14 days after spraying; for Moderate resistant: number of plants of 32 with curly rosette leaves 7 days after spraying; for High resistant: number of plants of 32 with growth consistent with blank solvent 7 days after spraying
Text: as §5, §6

[8] = system: wild type soybean plants (CK1); assay: Herbicide-resistance effect of wild type soybean (spraying, damage degree); assay type: in vivo; settings: wild-type soybean strain CK1, 2240 g ae/ha (4x); for Average damage % 6 HAT: 6 hours after spraying; for Average damage % 2 DAT: 2 days after spraying; for Average damage % 7 DAT: 7 days after spraying; for Average damage % 14 DAT: 14 days after spraying
Method: as §3, §4

[9] = system: Soybean plants containing 24DT21 nucleotide sequence (S1, S2, S3); assay: Herbicide-resistance effect of transgenic soybean T1 plants (spraying, damage degree); assay type: in vivo; settings: 2240 g ae/ha (4x); for Average damage % 6 HAT: 6 hours after spraying; for Average damage % 2 DAT: 2 days after spraying; for Average damage % 7 DAT: 7 days after spraying; for Average damage % 14 DAT: 14 days after spraying
Method: as §3, §4

[10] = corn strain S9 (control sequence)
[11] = corn strain S10 (control sequence)
[12] = soybean strain S4 (control sequence)
[13] = soybean strain S5 (control sequence)

CNC.O=C(O)COc1ccc(Cl)cc1Cl [2,4-D dimethyl ammonium salt]
Proportion of normal development of brace roots [1, 10]: 0% | Abnormal development of brace roots [1, 10]: 12 | Normal development of brace roots [1, 10]: 0 | Proportion of normal development of brace roots [1, 11]: 0% | Abnormal development of brace roots [1, 11]: 11 | Normal development of brace roots [1, 11]: 0 | Average damage % 6 HAT [2, 12]: 46% | Average damage % 2 DAT [2, 12]: 76% | Average damage % 7 DAT [2, 12]: 96% | Average damage % 14 DAT [2, 12]: 100% | Average damage % 6 HAT [2, 13]: 53% | Average damage % 2 DAT [2, 13]: 77% | Average damage % 7 DAT [2, 13]: 91% | Average damage % 14 DAT [2, 13]: 100% | Proportion of normal development of brace roots ([3]; corn strain S6 (24DT21)): 100.00% | Abnormal development of brace roots ([3]; corn strain S6 (24DT21)): 0 | Normal development of brace roots ([3]; corn strain S6 (24DT21)): 12 | Proportion of normal development of brace roots ([3]; corn strain S7 (24DT21)): 100.00% | Abnormal development of brace roots ([3]; corn strain S7 (24DT21)): 0 | Normal development of brace roots ([3]; corn strain S7 (24DT21)): 13 | Proportion of normal development of brace roots ([3]; corn strain S8 (24DT21)): 100.00% | Abnormal development of brace roots ([3]; corn strain S8 (24DT21)): 0 | Normal development of brace roots ([3]; corn strain S8 (24DT21)): 11 | Non-resistant [4]: 4 | Low resistant [4]: 1 | Moderate resistant [4]: 3 | High resistant [4]: 24 | Proportion of normal development of brace roots [5]: 0% | Abnormal development of brace roots [5]: 15 | Normal development of brace roots [5]: 0 | Non-resistant [6]: 32 | Low resistant [6]: 0 | Moderate resistant [6]: 0 | High resistant [6]: 0 | Non-resistant [7]: 32 | Low resistant [7]: 0 | Moderate resistant [7]: 0 | High resistant [7]: 0 | Average damage % 6 HAT [8]: 48% | Average damage % 2 DAT [8]: 72% | Average damage % 7 DAT [8]: 94% | Average damage % 14 DAT [8]: 100% | Average damage % 6 HAT ([9]; soybean strain S1 (24DT21)): 6% | Average damage % 2 DAT ([9]; soybean strain S1 (24DT21)): 4% | Average damage % 7 DAT ([9]; soybean strain S1 (24DT21)): 0% | Average damage % 14 DAT ([9]; soybean strain S1 (24DT21)): 0% | Average damage % 6 HAT ([9]; soybean strain S2 (24DT21)): 11% | Average damage % 2 DAT ([9]; soybean strain S2 (24DT21)): 4% | Average damage % 7 DAT ([9]; soybean strain S2 (24DT21)): 0% | Average damage % 14 DAT ([9]; soybean strain S2 (24DT21)): 0% | Average damage % 6 HAT ([9]; soybean strain S3 (24DT21)): 3% | Average damage % 2 DAT ([9]; soybean strain S3 (24DT21)): 0% | Average damage % 7 DAT ([9]; soybean strain S3 (24DT21)): 0% | Average damage % 14 DAT ([9]; soybean strain S3 (24DT21)): 0%

Cc1cc(Cl)ccc1OCC(=O)O [agroxone]
Proportion of normal development of brace roots [1, 10]: 0% | Abnormal development of brace roots [1, 10]: 13 | Normal development of brace roots [1, 10]: 0 | Proportion of normal development of brace roots [1, 11]: 0% | Abnormal development of brace roots [1, 11]: 10 | Normal development of brace roots [1, 11]: 0 | Average damage % 6 HAT [2, 12]: 38% | Average damage % 2 DAT [2, 12]: 69% | Average damage % 7 DAT [2, 12]: 87% | Average damage % 14 DAT [2, 12]: 100% | Average damage % 6 HAT [2, 13]: 47% | Average damage % 2 DAT [2, 13]: 74% | Average damage % 7 DAT [2, 13]: 92% | Average damage % 14 DAT [2, 13]: 100% | Proportion of normal development of brace roots ([3]; corn strain S6 (24DT21)): 100.00% | Abnormal development of brace roots ([3]; corn strain S6 (24DT21)): 0 | Normal development of brace roots ([3]; corn strain S6 (24DT21)): 11 | Proportion of normal development of brace roots ([3]; corn strain S7 (24DT21)): 100.00% | Abnormal development of brace roots ([3]; corn strain S7 (24DT21)): 0 | Normal development of brace roots ([3]; corn strain S7 (24DT21)): 12 | Proportion of normal development of brace roots ([3]; corn strain S8 (24DT21)): 100.00% | Abnormal development of brace roots ([3]; corn strain S8 (24DT21)): 0 | Normal development of brace roots ([3]; corn strain S8 (24DT21)): 13 | Non-resistant [4]: 7 | Low resistant [4]: 2 | Moderate resistant [4]: 2 | High resistant [4]: 21 | Proportion of normal development of brace roots [5]: 0% | Abnormal development of brace roots [5]: 15 | Normal development of brace roots [5]: 0 | Non-resistant [6]: 32 | Low resistant [6]: 0 | Moderate resistant [6]: 0 | High resistant [6]: 0 | Non-resistant [7]: 32 | Low resistant [7]: 0 | Moderate resistant [7]: 0 | High resistant [7]: 0 | Average damage % 6 HAT [8]: 34% | Average damage % 2 DAT [8]: 61% | Average damage % 7 DAT [8]: 82% | Average damage % 14 DAT [8]: 100% | Average damage % 6 HAT ([9]; soybean strain S1 (24DT21)): 10% | Average damage % 2 DAT ([9]; soybean strain S1 (24DT21)): 5% | Average damage % 7 DAT ([9]; soybean strain S1 (24DT21)): 0% | Average damage % 14 DAT ([9]; soybean strain S1 (24DT21)): 0% | Average damage % 6 HAT ([9]; soybean strain S2 (24DT21)): 16% | Average damage % 2 DAT ([9]; soybean strain S2 (24DT21)): 11% | Average damage % 7 DAT ([9]; soybean strain S2 (24DT21)): 6% | Average damage % 14 DAT ([9]; soybean strain S2 (24DT21)): 0% | Average damage % 6 HAT ([9]; soybean strain S3 (24DT21)): 7% | Average damage % 2 DAT ([9]; soybean strain S3 (24DT21)): 4% | Average damage % 7 DAT ([9]; soybean strain S3 (24DT21)): 0% | Average damage % 14 DAT ([9]; soybean strain S3 (24DT21)): 0%
